The assay relates to MTT (mouse pheochromocytoma). The assay can be described thus: IC50 of cell viability (ATP content). To be noted: (24 or 48 h). In a few lines:
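Each well of a white 1536-well plate received 5 µl of MTT mouse pheochromocytoma cells at 200,000 cells/ml in DMEM containing 5% FBS and 1% horse serum. After overnight culture at 37°C, 5% CO2, cells were exposed for 24 or 48 hrs to 23 nl of library compound in DMSO, pinned at 8 final concentrations from 0.5 nM to 46 µM. CellTiter-Glo luminescence was read after 15 minutes, and IC50 was obtained from a four-parameter logistic fit of signals normalised to positive-control and DMSO wells.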

Structures can show the parent of a compound that is named as a salt.

For the compound `OCc1cc(C(O)CNCCCCCCOCCCCc2ccccc2)ccc1O` (configuration not stated) [Salmeterol], the “IC50 of cell viability” value is greater than 46 µM.

Consider `CC(O)C(O)[C@H]1CNc2nc(N)nc(O)c2N1` (some centres not stated) [Sapropterin], for which the “IC50 of cell viability” value was greater than 46 µM.

With `CC(C)(C)NC(=O)[C@@H]1C[C@@H]2CCCC[C@@H]2CN1C[C@@H](O)[C@H](Cc1ccccc1)NC(=O)[C@H](CC(N)=O)NC(=O)c1ccc2ccccc2n1` [Saquinavir Mesylate], the “IC50 of cell viability” value is greater than 46 µM.

For the compound `N#C[C@@H]1C[C@@H]2C[C@@H]2N1C(=O)[C@@H](N)C12CC3CC(CC(O)(C3)C1)C2` [Saxagliptin], the “IC50 of cell viability” value was greater than 46 µM.

`C[N+]1([O-])[C@@H]2CC(OC(=O)[C@@H](CO)c3ccccc3)C[C@H]1[C@H]1O[C@H]12` (some centres not stated) [Scopolamin-N-oxide hydrobromide]: the “IC50 of cell viability” value is greater than 46 µM.

Regarding `Br.CN1[C@H]2C[C@H](OC(=O)[C@H](CO)c3ccccc3)C[C@H]1[C@H]1O[C@H]12.O.O.O` [Scopolamine hydrobromide trihydrate], the “IC50 of cell viability” value is greater than 46 µM.

With `C#CCN(C)[C@@H](C)Cc1ccccc1` [Selegiline hydrochloride], the “IC50 of cell viability” value is greater than 46 µM.

Consider `Cn1cnc2c(F)c(Nc3ccc(Br)cc3Cl)c(C(=O)NOCCO)cc21` [Selumetinib], for which the “IC50 of cell viability” value is greater than 46 µM.

In the case of `CCN(CC)CCNC(=O)c1ccc(N[S+](C)(=O)[O-])cc1.Cl.O` [Sematilide monohydrochloride monohydrate], the “IC50 of cell viability” value is greater than 46 µM.

Turning to `Clc1ccc([C@H](Cn2ccnc2)OCc2csc3c(Cl)cccc23)c(Cl)c1` [Sertaconazole nitrate], the “IC50 of cell viability” value was greater than 46 µM.

In the case of `O=C1NCCN1CCN1CCC(c2cn(-c3ccc(F)cc3)c3ccc(Cl)cc23)CC1` [Sertindole], the “IC50 of cell viability” value is greater than 46 µM.

In the case of `C=CCN.Cl.ClC[C@H]1CO1` [Sevelamer hydrochloride], the “IC50 of cell viability” value was greater than 46 µM.

On to `CN/C(=N\c1ccc(C2=NNC(=O)CC2C)cc1)NC#N` (configuration not stated) [Siguazodan], for which the “IC50 of cell viability” value is greater than 46 µM.

Regarding `CCCc1nn(C)c2c(O)nc(-c3cc([S+](=O)([O-])N4CCN(C)CC4)ccc3OCC)nc12` [Sildenafil citrate], the “IC50 of cell viability” value was greater than 46 µM.

With `COc1cc([C@H]2Oc3cc([C@H]4Oc5cc(O)cc(O)c5C(=O)[C@@H]4O)ccc3O[C@@H]2CO)ccc1O` [Silibinin], the “IC50 of cell viability” value was greater than 46 µM.

As to `CCC(C)(C)C(=O)O[C@@H]1C[C@H](C)\C=C2\C=C/[C@H](C)[C@@H](CC[C@H]3C[C@@H](O)CC(=O)O3)[C@@H]12` [Simvastatin], the “IC50 of cell viability” value is greater than 46 µM.

Consider `CN[C@H]1[C@@H](O)[C@@H](OC[C@@]1(C)O)O[C@@H]2[C@H](N)C[C@H](N)[C@H](O[C@@H]3O\C(=C/C[C@H]3N)CN)[C@H]2O` [Sisomicin sulfate], for which the “IC50 of cell viability” value was greater than 46 µM.

With `N[C@@H]1CN(CC12CC2)C3=C(F)C=C4C(=O)\C(=C/N([C@@H]5C[C@@H]5F)C4=C3Cl)C(O)=O` [Sitafloxacin], the “IC50 of cell viability” value was greater than 46 µM.

Regarding `O.O.[Na+].[Na+].[O]=[Cr](=[O])([O-])[O][Cr](=[O])(=[O])[O-]` [Sodium Dichromate Dihydrate], the “IC50 of cell viability” value was greater than 46 µM.

For `O.O=C([O-])CC([S][Au])C(=O)[O-].[Na+].[Na+]` (configuration not stated) [Sodium aurothiomalate hydrate], the “IC50 of cell viability” value was greater than 46 µM.

As to `O=c1[n-]c(=O)n(Cl)c(=O)n1Cl` [Sodium dichloroisocyanurate], the “IC50 of cell viability” value is greater than 46 µM.

Turning to `CCCCCCCCCCCCOS(=O)(=O)[O-]` [Sodium dodecyl sulfate], the “IC50 of cell viability” value is greater than 46 µM.

On to `O=S(=O)([O-])O.[Na+]` [Sodium hydrogen sulfate], for which the “IC50 of cell viability” value is greater than 46 µM.

With `[O-]Cl` [Sodium hypochlorite], the “IC50 of cell viability” value was greater than 46 µM.

In the case of `Cc1ccc(S(=O)(=O)[O-])cc1C` [Sodium xylenesulfonate], the “IC50 of cell viability” value is greater than 46 µM.

In the case of `Cc1cc(CC(=O)[O-])n(C)c1C(=O)c1ccc(Cl)cc1` [Sodium zomepirac], the “IC50 of cell viability” value is greater than 46 µM.

Regarding `CC(C)=CCOc1ccc(/C=C/C(=O)c2ccc(OCC=C(C)C)cc2OCC(=O)O)cc1` [Sofalcone], the “IC50 of cell viability” value was greater than 46 µM.

In the case of `CN(C)[C@@H]\1[C@H]2C[C@H]3\C(=C(\O)[C@@]2(O)C(=O)\C(=C1O)C(=O)NCN4CCCC4)C(=O)C5=C(C=CC=C5O)[C@]3(C)O` [Solvocillin], the “IC50 of cell viability” value is greater than 46 µM.

Turning to `C/C=C/C=C/C(=O)O` [Sorbic acid], the “IC50 of cell viability” value is greater than 46 µM.

As for `O=C1NC(=O)[C@@]2(CCOc3ccc(F)cc32)N1` [Sorbinil], the “IC50 of cell viability” value is greater than 46 µM.

As to `CCCCCCCCCCCCCCCCCC(=O)OC[C@@H](O)[C@H]1OC[C@H](O)[C@H]1O` [Sorbitan monostearate], the “IC50 of cell viability” value was greater than 46 µM.

Regarding `CCCCCCCC/C=C\CCCCCCCC(=O)OC[C@@H](O)[C@H]1OC[C@H](O)[C@H]1O` [Sorbitan, mono-(9Z)-9-octadecenoate], the “IC50 of cell viability” value is greater than 46 µM.

Turning to `C1CC[N@]2C[C@@H]3C[C@@H](CN4CCCC[C@H]34)[C@H]2C1` [Sparteine (-)], the “IC50 of cell viability” value is greater than 46 µM.

`CN[C@H]1[C@@H](O)[C@@H](NC)[C@@H]2O[C@]3(O)C(=O)C[C@@H](C)O[C@H]3O[C@H]2[C@H]1O` [Spectinomycin dihydrochloride]: the “IC50 of cell viability” value is greater than 46 µM.

Take `CO[C@H]1[C@@H](O[C@@H]2O[C@@H](C)[C@@H](O[C@H]3C[C@](C)(O)[C@H](O)[C@H](C)O3)[C@@H](N(C)C)[C@H]2O)[C@H](CC=O)C[C@@H](C)[C@@H](O[C@H]2CC[C@H](N(C)C)[C@H](C)O2)/C=C\C=C/C[C@@H](C)OC(=O)C[C@H]1O` [Spiramycin]: the “IC50 of cell viability” value was greater than 46 µM.

As for `CCOC(=O)[C@H](CCc1ccccc1)NC(C)C(=O)N1CC2(CC1C(=O)O)SCCS2` (some centres not stated) [Spirapril], the “IC50 of cell viability” value was greater than 46 µM.

On to `CC(=O)SC1C\C2=C\C(=O)CCC2(C)C3CCC4(C)C(CCC45CCC(=O)O5)C13` (configuration not stated) [Spironolactone], for which the “IC50 of cell viability” value was greater than 46 µM.

As to `OC(=O)CC/1=N/N(CC2=CC=C(Br)C=C2F)C(=O)C3=CC=CC=C13` [Statil], the “IC50 of cell viability” value is greater than 46 µM.

As for `CCCCCCCCCCCCCCCCCC(=O)O` [Stearic acid], the “IC50 of cell viability” value is greater than 46 µM.

As for `CC(C)(C)C(O)C=Cc1ccc2c(c1)OCO2` (configuration not stated) [Stiripentol], the “IC50 of cell viability” value was greater than 46 µM.

On to `CN[C@@H]1[C@H](O[C@H]2[C@H](O[C@H]3[C@H](O)[C@@H](O)[C@H](NC(=N)N)[C@@H](O)[C@@H]3NC(=N)N)O[C@@H](C)[C@]2(O)C=O)O[C@@H](CO)[C@H](O)[C@H]1O` [Streptomycin sulfate], for which the “IC50 of cell viability” value is greater than 46 µM.

Take `CN(N=O)C(=O)N[C@H]1[C@H](O)[C@H](O)[C@H](CO)O[C@@H]1O` [Streptozotocin]: the “IC50 of cell viability” value is greater than 46 µM.

With `C=Cc1ccccc1` [Styrene], the “IC50 of cell viability” value was greater than 46 µM.

As to `C[N+](C)(C)CCOC(=O)CCC(=O)OCC[N+](C)(C)C.[Cl-].[Cl-]` [Succinylcholine chloride], the “IC50 of cell viability” value is greater than 46 µM.

With `O=C(O)CCC(=O)Nc1ccc([S+](=O)([O-])Nc2nccs2)cc1` [Succinylsulfathiazole], the “IC50 of cell viability” value was greater than 46 µM.

Turning to `OC[C@@H]1O[C@@](CO)(OC2O[C@H](CO)[C@@H](O)[C@H](O)[C@@H]2O)[C@@H](O)[C@@H]1O` (some centres not stated) [Sucralox], the “IC50 of cell viability” value is greater than 46 µM.

For `O=S(=O)([O-])OCC1OC(OC2(COS(=O)(=O)[O-])OC(COS(=O)(=O)[O-])C(OS(=O)(=O)[O-])C2OS(=O)(=O)[O-])C(OS(=O)(=O)[O-])C(OS(=O)(=O)[O-])C1OS(=O)(=O)[O-]` (configuration not stated) [Sucrose Octasulfate, Sodium Salt], the “IC50 of cell viability” value was greater than 46 µM.

In the case of `CN1C(=S)CN=C(c2ccccc2)c2cc(Cl)ccc21` [Sulazepam], the “IC50 of cell viability” value is greater than 46 µM.

Regarding `CC1(C)C(C(=O)[O-])N2C(=O)CC2[S+]1(=O)[O-]` (configuration not stated) [Sulbactam], the “IC50 of cell viability” value was greater than 46 µM.

For the compound `S=C1SCN(Cc2ccccc2)CN1Cc1ccccc1` [Sulbentina], the “IC50 of cell viability” value was greater than 46 µM.

Regarding `CCOC(=O)c1ccc(NC(=O)CN2CCCCC2)cc1` [Sulcaine], the “IC50 of cell viability” value was greater than 46 µM.

For `Clc1ccc(CS[C@@H](Cn2ccnc2)c2ccc(Cl)cc2Cl)cc1` [Sulconazole nitrate], the “IC50 of cell viability” value was greater than 46 µM.

For `Nc1ccc([S+](=O)([O-])Nc2ccccc2)cc1` [Sulfabenz], the “IC50 of cell viability” value was greater than 46 µM.

Consider `Nc1ccc([S+](=O)([O-])NC(=O)c2ccccc2)cc1` [Sulfabenzamide], for which the “IC50 of cell viability” value was greater than 46 µM.

For the compound `CC(=O)N[S+](=O)([O-])c1ccc(N)cc1` [Sulfacetamide], the “IC50 of cell viability” value was greater than 46 µM.

In the case of `Nc1ccc([S+](=O)([O-])Nc2ccc(Cl)nn2)cc1` [Sulfachloropyridazine], the “IC50 of cell viability” value is greater than 46 µM.

Regarding `Nc1ccc([S+](=O)([O-])Nc2ncccn2)cc1` [Sulfadiazine], the “IC50 of cell viability” value is greater than 46 µM.

Consider `COc1cc(N[S+](=O)([O-])c2ccc(N)cc2)nc(OC)n1` [Sulfadimethoxine], for which the “IC50 of cell viability” value was greater than 46 µM.

For the compound `COc1ncnc(N[S+](=O)([O-])c2ccc(N)cc2)c1OC` [Sulfadoxine], the “IC50 of cell viability” value is greater than 46 µM.

Regarding `CCc1nnc(N[S+](=O)([O-])c2ccc(N)cc2)s1` [Sulfaethidole], the “IC50 of cell viability” value is greater than 46 µM.

With `CCOc1ccc(N[S+](=O)([O-])c2ccc(N)cc2)nn1` [Sulfaethoxypyridazine], the “IC50 of cell viability” value is greater than 46 µM.

With `NC(N)=N[S+](=O)([O-])c1ccc(N)cc1` [Sulfaguanidine], the “IC50 of cell viability” value is greater than 46 µM.

The values are drawn from the supplement of paper PMC3974653.
